# In paper PMC9074662, “Discovery of dihydrooxazolo[2,3-a]isoquinoliniums as highly specific inhibitors of hCE2” (RSC Advances, 2019):
# Values joined by “and” are separate entries in the source; they are usually repeats but may differ in a detail not shown here. Equal values may be shown once.
# Tests used:
# [1] = molecular target: T1, hCE2 (Homo sapiens, UniProt O00748); assay: hCE2 inhibition assay (FD hydrolysis in human liver microsomes); format: biochemical; conditions: for IC50: FD probe substrate (5 μM), HLM, PBS pH 7.4, 37 °C; for Selectivity IC50(hCE1)/IC50(hCE2): ratio of IC50 values, hCE2 over hCE1 selectivity (fold)
# T1 construct: tissue Bioreclamation IVT lot no; X008067; host or cells: pooled human liver microsomes, 50 donors
# T1 sequence (O00748 27-559): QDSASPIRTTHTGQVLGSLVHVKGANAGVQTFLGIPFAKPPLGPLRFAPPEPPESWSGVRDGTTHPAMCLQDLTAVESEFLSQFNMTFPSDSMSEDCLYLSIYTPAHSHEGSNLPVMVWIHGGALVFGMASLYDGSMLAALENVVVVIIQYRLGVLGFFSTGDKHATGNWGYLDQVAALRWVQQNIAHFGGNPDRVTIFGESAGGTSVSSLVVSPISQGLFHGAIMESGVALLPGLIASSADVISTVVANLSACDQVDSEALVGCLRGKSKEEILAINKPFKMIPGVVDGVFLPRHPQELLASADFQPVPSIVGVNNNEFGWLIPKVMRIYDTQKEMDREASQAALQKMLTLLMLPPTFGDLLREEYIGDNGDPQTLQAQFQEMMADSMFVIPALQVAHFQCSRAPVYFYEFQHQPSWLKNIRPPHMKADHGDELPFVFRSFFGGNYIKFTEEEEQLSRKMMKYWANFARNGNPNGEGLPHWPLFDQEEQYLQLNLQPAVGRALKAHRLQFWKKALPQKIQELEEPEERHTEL
# Method: In brief, 200 μL incubation mixture containing 0.1 M PBS (PH = 7.4), human liver microsomes (2 μg mL^−1, final concentration) and each inhibitor. […] After incubating for 30 min at 37 °C in a shaking bath, the reaction was stopped by the addition of acetonitrile (200 μL). The chemical structure of FD and its hydrolytic metabolite (fluorescein), as well as the detection conditions for fluorescein are depicted in Table S1. ^† The negative control incubation (DMSO only) was also carried out under the same conditions.[42] The residual activity was calculated using the formula mentioned above in hCE1 inhibition assay.
# [2] = molecular target: T2, hCE1 (Homo sapiens, UniProt P23141); assay: hCE1 inhibition assay (DME hydrolysis in human liver microsomes); format: biochemical; conditions: DME probe substrate (3 μM), HLM, PBS pH 6.8, 37 °C
# T2 construct: tissue Bioreclamation IVT lot no; X008067; host or cells: pooled human liver microsomes, 50 donors
# T2 sequence (P23141 18-567): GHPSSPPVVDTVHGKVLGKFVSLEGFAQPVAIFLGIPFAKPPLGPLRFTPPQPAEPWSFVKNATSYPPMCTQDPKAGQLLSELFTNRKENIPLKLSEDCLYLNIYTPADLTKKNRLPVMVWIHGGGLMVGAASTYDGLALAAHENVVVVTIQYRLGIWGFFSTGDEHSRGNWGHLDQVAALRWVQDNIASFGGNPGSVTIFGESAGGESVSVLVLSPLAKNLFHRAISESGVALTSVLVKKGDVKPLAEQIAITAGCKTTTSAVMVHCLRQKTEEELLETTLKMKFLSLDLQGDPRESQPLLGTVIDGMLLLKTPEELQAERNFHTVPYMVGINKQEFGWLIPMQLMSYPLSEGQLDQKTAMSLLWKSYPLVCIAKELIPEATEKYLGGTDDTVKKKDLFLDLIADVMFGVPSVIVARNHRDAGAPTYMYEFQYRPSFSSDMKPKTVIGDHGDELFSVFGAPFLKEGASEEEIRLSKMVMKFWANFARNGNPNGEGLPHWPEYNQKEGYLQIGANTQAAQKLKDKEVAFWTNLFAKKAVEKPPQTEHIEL
# Excerpt: We designed and synthesized more than 30 derivatives of DCZ0358. However, the five-ring quaternary ammonium component of some derivatives was unstable to decompose easily into its hydrolyzate 23b. With 12 stable compounds in hand, we conducted experiments to assay inhibitory activities against both hCE1 and hCE2 using a panel of fluorescent probe substrates.[33–36]D-Luciferin methyl ester (DME) was used as a probe substrate, and nevadensin (a specific hCE1 inhibitor) was used as a positive inhibitor control for hCE1. […] DME was used as a probe substrate for evaluating the inhibitory effects of all DCZ0358 derivatives on hCE1, while nevadensin (a specific hCE1 inhibitor) was used as a positive control.[39] Briefly, 100 μL incubation mixture containing 91 μL PBS (pH 6.8), 2 μL inhibitor at different concentrations and 5 μL HLM (1 μg mL^−1, final concentration), were pre-incubated at 37 °C for 10 min. Subsequently, 2 μL DME (3 μM final concentration, close to the Km value of DME in HLM) was added to initiate the reaction. After incubating for 10 min at 37 °C in a shaking bath, the reaction was stopped by the addition of LDR (100 μL). The microplate reader (SpectraMax® iD3, Molecular Devices, Austria) was used for luminescence measurements. The gain value of luminescence detection was set at 140 volts, and the integration time was set at 1 s. The chemical structure of DME and its hydrolytic metabolite (D-luciferin), as well as the detection conditions for D-luciferin are depicted in Table S1. ^† The negative control incubation (DMSO only) was carried out under the same conditions. The residual activity was calculated using the following formula, the residual activity (%) = (the florescence intensity in the presence of inhibitor)/the florescence intensity in negative control × 100%. The residual activities are show in Fig. S1. ^†
# [3] = molecular target: T3, intracellular hCE2 (Homo sapiens, UniProt O00748); assay: Inhibition of intracellular hCE2 in living HepG2 cells (NCEN hydrolysis, fluorescence imaging); format: cell-based
# T3 construct: endogenous in cells; host or cells: HepG2
# T3 sequence (O00748 27-559): T1 sequence (O00748 27-559)
# Method: In view of that hCE2 was an intracellular enzyme, the inhibition potential of 23o was investigated in living HepG2 cells. The HepG2 cells were cultured in Modified Eagle's Medium (MEM) with 5% CO2 and 0.1% antibiotic–antimycoticmix antibiotic at 37 °C, supplemented with 10% fetal bovine serum (FBS) and used NCEN as substrate probe to assay the 23o inhibition potential toward hCE2.
# For fluorescence imaging, HepG2 cells were seeded in 96-well plates (8000 cells per well) with complete medium and then incubated for 24 hours. Afterwards, the cells were washed twice with FBS-free culture medium and then preincubated in the medium containing 23o (prepared in FBS-free at various concentrations) for 30 min with 5% CO2 at 37 °C. HepG2 cells were then co-incubated with NCEN (final concentration, 10 μM) for another 50 min to assess the intracellular hCE2 function, respectively. The living cells were imaged and analyzed using an ImageXpress® Micro Confocal High-Content Imaging system (Molecular Devices, Austria).
IC50 [1] [µM],Selectivity IC50(hCE1)/IC50(hCE2) [1],IC50 [2] [µM],"Ki ([1]; Lineweaver-Burk plots, FD substrate, read-out: Ki against hCE2-mediated FD hydrolysis)","Inhibition mode against hCE2-mediated FD hydrolysis ([1]; inhibition kinetics, FD substrate)","IC50 ([3]; HepG2 cells, NCEN 10 μM substrate, read-out: IC50 against intracellular hCE2 in living HepG2 cells) [µM]","Inhibition of intracellular hCE2-mediated NCEN hydrolysis (fluorescence intensity, green channel) ([3]; living HepG2 cells, 0-20 μM, NCEN 10 μM, 50 min)",Compound
3.32 ± 0.87,>30.14,> 100,–,–,–,–,"COc1ccc(-c2cc3ccc(OC)c(OC)c3c3[n+]2C(OC)CO3)cc1OCc1ccc([N+](=O)[O-])cc1 (centres unmarked) [Compound 23h, 3,9,10-Trimethoxy-5-(4-methoxy-3-((4-nitrobenzyl)oxy)phenyl)-2,3-dihydrooxazolo[2,3-a]isoquinolin-4-ium]"
16 ± 1.49,>0.25,4.04 ± 0.4,–,–,–,–,COc1ccc2cc(-c3ccc4c(c3)OCO4)[n+]3c(c2c1OC)OCC3OC (centres unmarked) [Compound 23a]
1.66 ± 0.21,>60.31,> 100,–,–,–,–,"COc1ccc(-c2cc3ccc(OC)c(OC)c3c3[n+]2C(OC)CO3)cc1OCc1ccc(C(C)C)cc1 (centres unmarked) [Compound 23n, 5-(3-((4-Isopropylbenzyl)oxy)-4-methoxyphenyl)-3,9,10-trimethoxy-2,3-dihydrooxazolo[2,3-a]isoquinolin-4-ium]"
–,–,2.64 ± 0.22,–,–,–,–,"COc1ccc(-c2cc(=O)c3c(O)c(OC)c(O)c(OC)c3o2)cc1 [Nevadensin, reference compound]"
2.33 ± 0.2,>42.81,> 100,–,–,–,–,"COc1ccc(-c2cc3ccc(OC)c(OC)c3c3[n+]2C(OC)CO3)cc1OCc1ccc(C(C)(C)C)cc1 (centres unmarked) [Compound 23m, 5-(3-((4-(tert-Butyl)benzyl)oxy)-4-methoxyphenyl)-3,9,10-trimethoxy-2,3-dihydrooxazolo[2,3-a]isoquinolin-4-ium]"
3.33 ± 0.32,>30.07,> 100,–,–,–,–,"COc1ccc(-c2cc3ccc(OC)c(OC)c3c3[n+]2C(OC)CO3)cc1OCc1ccc(C#N)cc1 (centres unmarked) [Compound 23g, 5-(3-((4-Cyanobenzyl)oxy)-4-methoxyphenyl)-3,9,10-trimethoxy-2,3-dihydrooxazolo[2,3-a]isoquinolin-4-ium]"
11.5 ± 1.76,>8.72,> 100,–,–,–,–,"COc1ccc(-c2cc3ccc(OC)c(OC)c3c3[n+]2C(OC)CO3)cc1OCc1ccc(S(C)(=O)=O)cc1 (centres unmarked) [Compound 23e, 3,9,10-Trimethoxy-5-(4-methoxy-3-((4-(methylsulfonyl)benzyl)oxy)phenyl)-2,3-dihydrooxazolo[2,3-a]isoquinolin-4-ium]"
2.43 ± 0.28,>41.22,> 100,–,–,–,–,"COc1ccc(-c2cc3ccc(OC)c(OC)c3c3[n+]2C(OC)CO3)cc1OCc1ccc(C(F)(F)F)cc1 (centres unmarked) [Compound 23i, 3,9,10-Trimethoxy-5-(4-methoxy-3-((4-(trifluoromethyl)benzyl)oxy)phenyl)-2,3-dihydrooxazolo[2,3-a]isoquinolin-4-ium]"
2.64 ± 0.45,>37.89,> 100,–,–,–,–,"COc1ccc(-c2cc3ccc(OC)c(OC)c3c3[n+]2C(OC)CO3)cc1OCc1ccc(-c2ccccc2)cc1 (centres unmarked) [Compound 23l, 5-(3-([1,1′-Biphenyl]-4-ylmethoxy)-4-methoxyphenyl)-3,9,10-trimethoxy-2,3-dihydrooxazolo[2,3-a]isoquinolin-4-ium]"
1.19,>83.89,> 100,0.84 µM and 0.843 µM,mixed inhibitor,2.29,strongly inhibit,"COc1cc(COc2cc(-c3cc4ccc(OC)c(OC)c4c4[n+]3C(OC)CO4)ccc2OC)cc(OC)c1 (centres unmarked) [Compound 23o, 5-(3-((3,5-Dimethoxybenzyl)oxy)-4-methoxyphenyl)-3,9,10-trimethoxy-2,3-dihydrooxazolo[2,3-a]isoquinolin-4-ium]"
3.77 ± 0.25,>26.51,> 100,–,–,–,–,"COc1ccc(-c2cc3ccc(OC)c(OC)c3c3[n+]2C(OC)CO3)cc1OCc1ccc2cccnc2c1 (centres unmarked) [Compound 23j, 3,9,10-Trimethoxy-5-(4-methoxy-3-(quinolin-7-ylmethoxy)phenyl)-2,3-dihydrooxazolo[2,3-a]isoquinolin-4-ium]"
5.73 ± 0.79,>17.46,> 100,–,–,–,–,"COC(=O)c1ccc(COc2cc(-c3cc4ccc(OC)c(OC)c4c4[n+]3C(OC)CO4)ccc2OC)cc1 (centres unmarked) [Compound 23f, 3,9,10-Trimethoxy-5-(4-methoxy-3-((4-(methoxycarbonyl)benzyl)oxy)phenyl)-2,3-dihydrooxazolo[2,3-a]isoquinolin-4-ium]"
6.89,>14.52,> 100,–,–,–,–,"COc1ccc(COc2cc(-c3cc4ccc(OC)c(OC)c4c4[n+]3C(OC)CO4)ccc2OC)cc1 (centres unmarked) [Compound 23d, 3,9,10-trimethoxy-5-(4-methoxy-3-((4-methoxybenzyl)oxy)phenyl)-2,3-dihydrooxazolo[2,3-a]isoquinolin-4-ium]"
5.58 ± 0.94,>17.94,> 100,–,–,–,–,"COc1ccc(-c2cc3ccc(OC)c(OC)c3c3[n+]2C(OC)CO3)cc1OCc1ccc(C)cc1 (centres unmarked) [Compound 23k, 3,9,10-Trimethoxy-5-(4-methoxy-3-((4-methylbenzyl)oxy)phenyl)-2,3-dihydrooxazolo[2,3-a]isoquinolin-4-ium]"
41.7 ± 18.1,>0.88,36.8 ± 7.7,–,–,–,–,COc1ccc2cc(-c3ccc4c(c3)OCO4)n(C(CO)OC)c(=O)c2c1OC (centres unmarked) [Compound 23b]
